Assay results reported in US11028051B2, “Tetrahydroquinoline-based bromodomain inhibitors” (St. Jude Children's Research Hospital, priority 2016, dated 2021).
Read-outs that look alike come from different tables or passages of the source.

Tests used:
BRD2-BD2 = BRD2-BD2 (Homo sapiens (Human), UniProt P25440); test: surface plasmon resonance analysis of binding; conditions: SPR, BRD2(2)
Description: (§1) a. Surface Plasmon Resonance (Biacore) Analysis of Binding to Brd2-BD1 and Brd2-BD2
(§2) SPR experiments were conducted at 15° C. using a SensiQ Pioneer optical biosensor (SensiQ Technologies). Poly-His tagged BRD2 constructs were immobilized on polycarboxylate-coated gold chips preimmobilized with nitrilotriacetic acid (His-Cap chips; SensiQ Technologies) by capture-coupling, a hybrid method of capture and amine coupling chemistry (Ref. A). The His-Cap chip was preconditioned and charged with Ni^2+ in equilibration buffer (10 mM HEPES pH 7.4, 150 mM NaCl, 50 μM EDTA, 0.005% Tween20) at a flow rate of 10 μL/min. The chip was washed with three 60 s injections of regeneration buffer (10 mM HEPES pH 8.3, 150 mM NaCl, 350 mM EDTA, 0.05% Tween20) and one 60 s injection of equilibration buffer and was charged with a 60 s injection of 500 mM NiCl2 in equilibration buffer, which added ˜55 RU of Ni^2+ per channel. […]
(§3) A series of buffer-only (blank) injections was included throughout the experiment to account for instrumental noise. The data were processed, double-referenced, solvent corrected and analyzed using the software package Qdat (version 2.5.3.5, SensiQ Technologies) (Ref B). The kinetic rate constants were determined by globally fitting the data to a 1:1 interaction model. Equilibrium dissociation constants (KD) were calculated as the quotient kd/ka.

BRD2-BD1 = BRD2-BD1 (Homo sapiens (Human), UniProt P25440); test: surface plasmon resonance analysis of binding; conditions: SPR, BRD2(1) (printed MRD2(1))
BRD2-BD1, sequence (P25440 74-180): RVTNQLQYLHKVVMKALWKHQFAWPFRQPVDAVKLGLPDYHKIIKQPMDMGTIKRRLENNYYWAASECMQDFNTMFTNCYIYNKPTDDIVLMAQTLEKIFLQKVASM
Description: as §1, §2, §3

HDMB03 cells = test: cell viability, CellTiter-Glo; format: cell-based, human; conditions: Homo sapiens, read-out: EC50 (μM) HDMB03
Summary of the method: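 Medulloblastoma cells grown as neurospheres in supplemented neurobasal medium and treated for 7 days; viability read by CellTiter-Glo luminescence. Log10-transformed signal normalized to negative and positive controls; median percent inhibition of triplicates fitted with a four-parameter log-logistic model.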

MV-4-11 = test: anti-proliferative activity; format: cell-based; conditions: Homo sapiens, MV4-11; Table 7
Description: (§4) After 7 days of treatment, an equal volume of CellTiter-Glo reagent (G7572, Promega) was added and the luminescence signal was measured using an automated Envision plate reader (Perkin-Elmer). Luminescence data were normalized by log10 transformation prior to calculating the percent inhibition using the following equation:
(§5) 100*(negative control mean −compound value)/(negative control mean −positive control mean).

NALM-16 = test: anti-proliferative activity; format: cell-based; conditions: NALM16; Table 5
Description: as §4, §5

Loucy = test: anti-proliferative activity; format: cell-based; conditions: Table 5
Description: as §4, §5

SEM cells = test: anti-proliferative activity; format: cell-based; conditions: Table 5
Description: as §4, §5

[1] = test system: neural crest tumor cell lines; test: activity versus neural crest tumor cell lines; format: cell-based; conditions: several neural crest tumor cell lines; read-out: IC50 ranges

BRD2-BD2, sequence (P25440 344-453): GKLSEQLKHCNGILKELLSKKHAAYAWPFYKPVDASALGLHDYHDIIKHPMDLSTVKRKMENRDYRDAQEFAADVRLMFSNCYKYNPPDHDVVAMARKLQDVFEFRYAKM

`COC(=O)c1ccc(N[C@@H]2C[C@H](C)N(C(C)=O)c3ccc(-c4cccc(NC(C)=O)c4)cc32)cc1` [compound 4] gave a Kd (BRD2-BD2) of 13 nM, a Kd (BRD2-BD1) of 132 nM and an EC50 (HDMB03 cells; HD-MB03, Table 5) of 0.31 µM. For the same compound, the EC50 (HDMB03 cells; HD-MB03, Table 7) was 0.75 µM, the EC50 (HDMB03 cells; HD-MB03, Table 9, cancer cell proliferation inhibition) was 0.75 µM and the EC50 (MV-4-11) was 0.016 µM. The EC50 (NALM-16) was 0.35 µM, the EC50 (Loucy) was 0.39 µM and the EC50 (SEM cells) was 0.02 µM. It also gave an IC50 [1] of 50 to 200 nM.
